# In patent publication US9216998B2, “Tricyclic indole derivatives useful endothelial lipase inhibitors” (Janssen Pharmaceutica, NV, priority 2012, dated 2015):
# Legend:
# [1] = molecular target: human endothelial lipase (EL) (Homo sapiens (Human), UniProt Q9Y5X9); experiment: Endothelial lipase assay, cell surface lipase activity (human EL); type: cell-based; conditions: cells expressing human EL, PLA1 substrate 10 μM, fluorescence rate
# Method: (§1) To assay for cell surface lipase activity, cells expressing human endothelial lipase (EL) or LPL were plated in CellBIND® 384-well plates (Corning, Lowell, Mass.) in 25 μL serum free medium at a density of 2000 cells/well. After 18-24 hours incubation at 37° C., the medium was removed and replaced with 15 μL assay buffer [Hank's Buffered Saline Solution with 25 mM HEPES pH 7.2] and 15 μL PLA1 substrate for a final concentration of 10 μM using a Multidrop reagent dispenser. Fluorescence signal was monitored for 30 min at 37° C. on a Safire II plate reader in kinetic mode (60 cycles, kinetic interval: 30 seconds) with an excitation wavelength of 490 nm and an emission wavelength of 515 nm. […] The amount of BODIPY-labeled product generated was calculated at the 30 min time point as determined from standard curve analysis of purified BODIPY FL C5.
# [2] = molecular target: Mouse EL (Mus musculus (Mouse), UniProt Q9WVG5); experiment: Endothelial lipase assay, cell surface lipase activity (mouse EL); type: cell-based; conditions: PLA1 substrate 10 μM, fluorescence rate
# Method: [The source words this procedure for another species and reports this species under the same test.] as §1
# Mouse EL, sequence (Q9WVG5 21-500): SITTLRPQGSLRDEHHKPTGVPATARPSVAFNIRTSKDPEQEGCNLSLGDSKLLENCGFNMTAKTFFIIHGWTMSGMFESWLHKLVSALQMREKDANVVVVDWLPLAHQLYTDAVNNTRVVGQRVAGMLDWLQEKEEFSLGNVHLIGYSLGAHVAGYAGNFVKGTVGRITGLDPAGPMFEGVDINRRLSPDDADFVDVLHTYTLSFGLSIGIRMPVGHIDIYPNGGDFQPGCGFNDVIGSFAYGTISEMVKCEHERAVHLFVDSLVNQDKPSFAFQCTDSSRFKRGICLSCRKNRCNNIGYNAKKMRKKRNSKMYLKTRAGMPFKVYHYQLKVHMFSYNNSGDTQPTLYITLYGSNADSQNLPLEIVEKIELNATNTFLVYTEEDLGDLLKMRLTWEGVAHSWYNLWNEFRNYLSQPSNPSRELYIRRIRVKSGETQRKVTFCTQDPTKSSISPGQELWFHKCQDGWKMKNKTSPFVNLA
# human endothelial lipase (EL), sequence (Q9Y5X9 21-500): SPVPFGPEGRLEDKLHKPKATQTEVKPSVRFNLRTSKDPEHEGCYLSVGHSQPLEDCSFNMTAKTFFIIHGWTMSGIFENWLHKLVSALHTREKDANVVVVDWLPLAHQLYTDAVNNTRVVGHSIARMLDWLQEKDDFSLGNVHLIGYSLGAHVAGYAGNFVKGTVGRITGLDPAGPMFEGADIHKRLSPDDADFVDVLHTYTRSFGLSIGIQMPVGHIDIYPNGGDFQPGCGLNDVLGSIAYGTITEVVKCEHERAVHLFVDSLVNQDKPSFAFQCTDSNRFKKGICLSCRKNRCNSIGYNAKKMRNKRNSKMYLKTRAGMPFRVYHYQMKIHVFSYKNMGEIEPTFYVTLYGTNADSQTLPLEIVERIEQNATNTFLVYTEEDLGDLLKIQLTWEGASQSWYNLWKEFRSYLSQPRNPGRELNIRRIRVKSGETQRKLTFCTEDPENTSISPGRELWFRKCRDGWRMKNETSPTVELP
SMILES,IC50 [1],IC50 [2]
"CC(=O)OCC(=O)N1CCn2c(CCc3ccccc3)c(C(F)(F)F)c3cccc(c32)C1 [Compound 20, 2-oxo-2-(6-phenethyl-7-(trifluoromethyl)-3,4-dihydro-[1,4]diazepino[6,7,1-hi]indol-2(1H)-yl)ethyl acetate]",0.442 µM,0.479 µM
"NCC(=O)N1CCn2c(CCc3ccccc3)c(C(F)(F)F)c3cccc(c32)C1 [Compound 18, 2-amino-1-(6-phenethyl-7-(trifluoromethyl)-3,4-dihydro-[1,4]diazepino[6,7,1-hi]indol-2(1H)-yl)ethanone]",2.02 µM,1.89 µM
COc1cc2c3c(c1)c(C(F)(F)F)c(CCc1ccccc1)n3CCC2 [Compound 5],0.014 µM,0.017 µM
FC(F)(F)c1c(CCCc2ccccc2)n2c3c(cccc13)CC2 [Compound 1],0.185 µM,0.195 µM
Oc1cc2c3c(c1)c(C(F)(F)F)c(CCc1ccccc1)n3CCC2 [Compound 6],0.071 µM,0.136 µM
"FC(F)(F)c1c(CCc2ccccc2)n2c3c(cccc13)CNCC2 [Compound 15, 6-phenethyl-7-(trifluoromethyl)-1,2,3,4-tetrahydro-[1,4]diazepino[6,7,1-hi]indole]",0.694 µM,0.677 µM
"CN(C)CC(=O)N1CCn2c(CCc3ccccc3)c(C(F)(F)F)c3cccc(c32)C1 [Compound 16, 2-(dimethylamino)-1-(6-phenethyl-7-(trifluoromethyl)-3,4-dihydro-[1,4]diazepino[6,7,1-hi]indol-2(1H)-yl)ethanone]",0.959 µM,1 µM
FC(F)(F)c1c(CCCc2ccccc2)n2c3c(cccc13)SCC2 [Compound 28],33.3 µM,33.3 µM
"N=C(N)N1CCn2c(CCc3ccccc3)c(C(F)(F)F)c3cccc(c32)C1 [Compound 17, 6-phenethyl-7-(trifluoromethyl)-3,4-dihydro-[1,4]diazepino[6,7,1-hi]indole-2(1H)-carboximidamide]",4.82 µM,3.62 µM
FC(F)(F)c1c(CCCc2ccccc2)n2c3c(cccc13)CCC2 [Compound 4],0.143 µM,0.205 µM
FC(F)(F)c1c(Cc2ccccc2)n2c3c(cccc13)CCC2 [Compound 3],0.115 µM,0.096 µM

# The remaining lines, values ahead:
IC50 [1],IC50 [2],SMILES
0.255 µM,0.237 µM,"O=C(CC(F)(F)F)N1CCn2c(CCc3ccccc3)c(C(F)(F)F)c3cccc(c32)C1 [Compound 21, 3,3,3-trifluoro-1-(6-phenethyl-7-(trifluoromethyl)-3,4-dihydro-[1,4]diazepino[6,7,1-hi]indol-2(1H)-yl)propan-1-one]"
0.022 µM,0.048 µM,"FC(F)(F)c1c(CCc2ccccc2)n2c3c(cccc13)CCC2 [Compound 2, 2-Phenethyl-1-(trifluoromethyl)-5,6-dihydro-4H-pyrrolo[3,2,1-ij]quinoline, reference compound]"
0.36 µM,1.2 µM,FC(F)(F)c1c(CCCc2ccccc2)n2c3c(cccc13)CCCC2 [Compound 11]
0.186 µM,0.34 µM,"CS(=O)(=O)N1CCn2c(CCc3ccccc3)c(C(F)(F)F)c3cccc(c32)C1 [Compound 24, 2-(methylsulfonyl)-6-phenethyl-7-(trifluoromethyl)-1,2,3,4-tetrahydro-[1,4]diazepino[6,7,1-hi]indole]"
0.168 µM,0.162 µM,"O=C(Nc1ccccc1)N1CCn2c(CCc3ccccc3)c(C(F)(F)F)c3cccc(c32)C1 [Compound 14, 6-phenethyl-N-phenyl-7-(trifluoromethyl)-3,4-dihydro-[1,4]diazepino[6,7,1-hi]indole-2(1H)-carboxamide]"
0.082 µM,0.108 µM,FC(F)(F)c1c(CCCOc2ccccc2)n2c3c(cccc13)OCC2 [Compound 27]
0.15 µM,0.124 µM,"CC(C)(C)OC(=O)N1CCn2c(CCc3ccccc3)c(C(F)(F)F)c3cccc(c32)C1 [Compound 13, tert-butyl 6-phenethyl-7-(trifluoromethyl)-3,4-dihydro-[1,4]diazepino[6,7,1-hi]indole-2(1H)-carboxylate]"
0.135 µM,0.131 µM,"CC(C)NC(=O)N1CCn2c(CCc3ccccc3)c(C(F)(F)F)c3cccc(c32)C1 [Compound 12, N-isopropyl-6-phenethyl-7-(trifluoromethyl)-3,4-dihydro-[1,4]diazepino[6,7,1-hi]indole-2(1H)-carboxamide]"
0.039 µM,0.031 µM,"FC(F)(F)c1c(CCc2ccccc2)n2c3c(cccc13)OCC2 [Compound 25, 5-phenethyl-6-(trifluoromethyl)-2,3-dihydro-[1,4]oxazino[2,3,4-hi]indole]"
0.28 µM,0.346 µM,"OCCN1CCn2c(CCc3ccccc3)c(C(F)(F)F)c3cccc(c32)C1 [Compound 23, 2-(6-phenethyl-7-(trifluoromethyl)-3,4-dihydro-[1,4]diazepino[6,7,1-hi]indol-2(1H)-yl)ethanol]"
0.043 µM,0.036 µM,"FC(F)(F)c1c(CCc2ccccc2)n2c3c(cccc13)CCCC2 [Compound 9, 2-phenethyl-1-(trifluoromethyl)-4,5,6,7-tetrahydroazepino[3,2,1-hi]indole]"
0.413 µM,0.618 µM,FC(F)(F)c1c(CCCc2ccccc2)n2c3c(cccc13)OCC2 [Compound 26]
